The values below are quoted from earlier work in patent US8460687B1, “Peeling compositions” (Cosmoceutical Research Center, priority 2009, dated 2013).

Read-outs that look alike come from different tables or passages of the source.

Take `O=P(O)(O)O[C@H]1[C@H](OP(=O)(O)O)[C@@H](OP(=O)(O)O)[C@H](OP(=O)(O)O)[C@@H](OP(=O)(O)O)[C@H]1OP(=O)(O)O` [Phytic acid, inisitol hexakisphosphate]: the “pH of aqueous solution” value by setting is: (0.66 g/l) 2.68; (66 g/l) 0.9.
